Test results from patent publication US11993576B2, “N-benzyl-N-arylsulfonamide derivative and preparation and use thereof” (Hangzhou Yirui Pharmaceutical Technology Co., Ltd, priority 2019, dated 2024).

Target: human Kv1.3 (Homo sapiens, UniProt P22001)
Assay: IonWorks automated patch clamp assay of inhibitory activity against Kv1.3
Format: cell-based
Conditions: automated patch clamp method; CHO-K1 cells stably expressing human Kv1.3
Method: I. IonWorks Automated Patch Clamp Assay of Inhibitory Activity Against Kv1.3
The principle and method for Kv1.3 IonWorks assay can be found in Schroeder et al. [Schroeder et al. J Biomol Screen 2003, 8(1):50-64]
Inhibitory activity of the compounds against Kv1.3 was assessed using a CHO-K1 recombinant cell line stably expressing human Kv1.3 (Charles River, Calif.). The cells were cultured in an F-12K culture medium containing 5% calf serum (Invitrogen, Carlsbad. Calif.) in an incubator at 37° C. and under air humidity with 6% CO2. Prior to be fed in the IonWorks system, the adherent cells were treated with Versene at 37° C. for 6-7 min. After gently beating the culture flask, the cells were re-suspended in a PBS phosphate buffer, and then were centrifuged at 50×g for 4 min. After a short grinding, the cells were eventually re-suspended in an external recording solution at a density of approximately 1×10^6/mL.
The compounds were dissolved in DMSO to formulate a final assay concentration of 300× on the master plate. The final gradient assay concentrations were […], 0.096, 0.048, 0.24, 1.2, 6 and 30 μM. All 300× stock solutions of each compound in DMSO were transferred to a 384-well plate with 2 μl per well. The plates were sealed and stored at −80° C. until the day of assay.
On the day of assay, the plates were each thawed at room temperature. After centrifugation, 198 μl of the external recording solution (with the components of: 130 mM Na-Gluconate, 20 mM NaCl, 4 mM KCl, 1 mM MgCl2, 1.8 mM CaCl2, 5 mM Glucose and 10 mM HEPES, pH7.3) was added and mixed thoroughly. This step provided a 1:100 dilution for the compounds. After addition of cells to IonWorks, a further 1:3 dilution was carried out, resulting in a total dilution of 1:300. At least 8 wells were reserved as blank control on each of the plates, i.e., containing only 0.3% DMSO. In addition, at least 8 wells were reserved as positive control to detect the specificity to cell signals. Fluoxetine, a compound as the positive control, was assayed at its maximum blocking concentration (100 μm) and secondary maximum blocking concentration (10 μm). In addition, an internal recording solution used in the assay (with the components of: 100 mM K-gluconate, 40 mM KCl, 1 mM MgCl2, 1 mM EGTA and 10 mM HEPES, pH7.3) contained Amphotericin B at a final concentration of 200 μg/mL to gain current channels inside the cells. The osmotic pressure of the solution was adjusted with sucrose.
Experimental procedures were carried out following the protocols as set by IonWorks Quattro system (Molecular Devices, San Jose, CA). The current of human Kv1.3 was elicited to 0 millivolt (mV) for four times by a pulse lasting 1 second. A potential of −80 mV was maintained between pulses, for 5 seconds. First, a early voltage application program was started in the IonWorks Quattro system, and then the compounds were added and incubated for 600 seconds. Next, a late voltage application program was started until completion of all assays.
The maximum peak outward currents both before and after addition of the compounds as well as the average tail current elicited when the fourth pulse rose to 0 mV were measured. The inhibitory activity of the compounds against Kv1.3 can be calculated by dividing the measured current amplitude after addition of the compounds by the measured current amplitude before addition of the compounds.
All data was calibrated by a data filtration program of the IonWorks Quattro system. The filtration standard was that: seal quality >30 MΩ, decrease of seal resistance <50% and current amplitude >200 pA.

Chain of human Kv1.3 (P22001 whole entry): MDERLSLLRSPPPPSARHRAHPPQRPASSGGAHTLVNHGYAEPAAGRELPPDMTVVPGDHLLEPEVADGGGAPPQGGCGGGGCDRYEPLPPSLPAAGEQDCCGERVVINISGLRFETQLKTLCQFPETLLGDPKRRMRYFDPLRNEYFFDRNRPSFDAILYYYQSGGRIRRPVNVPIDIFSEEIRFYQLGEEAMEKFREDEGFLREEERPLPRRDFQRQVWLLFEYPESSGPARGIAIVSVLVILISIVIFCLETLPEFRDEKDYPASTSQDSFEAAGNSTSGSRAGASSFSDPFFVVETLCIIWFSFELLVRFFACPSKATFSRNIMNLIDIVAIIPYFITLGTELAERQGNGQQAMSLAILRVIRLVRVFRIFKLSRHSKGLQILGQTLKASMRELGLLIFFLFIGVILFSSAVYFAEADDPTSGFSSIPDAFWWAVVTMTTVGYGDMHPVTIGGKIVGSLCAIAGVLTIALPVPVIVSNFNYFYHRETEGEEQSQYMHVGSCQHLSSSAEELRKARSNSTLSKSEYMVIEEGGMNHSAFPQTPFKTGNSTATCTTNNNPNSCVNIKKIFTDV

Row | IC50 | Compound
1 | 645 nM | CCCS(=O)(=O)N(Cc1cscn1)c1ccc(N2CCN(C(=O)OCC)CC2)c(C#N)c1 [Compound 34, Ethyl 4-(2-cyano-4-(N-(thiazol-4-ylmethyl)propanesulfonamido)phenyl) piperazin-1-formate]
2 | 201 nM | CCCS(=O)(=O)N(Cc1cncn1C)c1ccc(N2CCN(C(=O)OCC)CC2)c(C#N)c1 [Compound 35, Ethyl 4-(2-cyano-4-(N-((1-methyl-1H-imidazol-5-yl)methyl)propanesulfonamido)phenyl)piperazin-1-formate]
3 | 130 nM | CCCS(=O)(=O)N(Cc1ccnn1C)c1ccc(N2CCN(C(=O)OCC)CC2)c(C#N)c1 [Compound 36, Ethyl 4-(2-cyano-4-(N-((1-methyl-1H-pyrazol-5-yl)methyl)propanesulfon-amido)phenyl)piperazin-1-formate]
4 | 101 nM | CCCCS(=O)(=O)N(Cc1ccc(F)cc1)c1ccc(N2CCN(C(=O)N(C)C)CC2)c(C#N)c1 [Compound 38, 4-(2-cyano-4-(N-(4-fluorobenzyl)butanesulfonamido)phenyl)-N,N-dimethylpiperazin-1-formamide]
5 | 155 nM | CC(C)CCS(=O)(=O)N(Cc1ccc(F)cc1)c1ccc(N2CCN(C(=O)N(C)C)CC2)c(C#N)c1 [Compound 39, 4-(2-cyano-4-((N-(4-fluorobenzyl)-3-methylbutyl)sulfonamido)phenyl)-N,N-dimethylpiperazin-1-formamide]
6 | 206 nM | CN(C)C(=O)N1CCN(c2ccc(N(Cc3ccc(F)cc3)S(=O)(=O)CC(C)(C)C)cc2C#N)CC1 [Compound 40, 4-(2-cyano-4-((N-(4-fluorobenzyl)-2,2-dimethylpropyl)sulfonamido)phenyl)-N,N-dimethylpiperazin-1-formamide]
7 | 131 nM | CCCS(=O)(=O)N(Cc1ccncc1)c1ccc(N2CCN(C(=O)N(C)C)CC2)c(C#N)c1 [Compound 41, 4-(2-cyano-4-(N-(pyridin-4-ylmethyl)propanesulfonamido)phenyl)-N,N-dimethylpiperazin-1-formamide]
8 | 167 nM | CCCS(=O)(=O)N(Cc1ccncn1)c1ccc(N2CCN(C(=O)N(C)C)CC2)c(C#N)c1 [Compound 42, 4-(2-cyano-4-(N-(pyrimidin-4-ylmethyl)propanesulfonamido)phenyl)-N,N-dimethylpiperazin-1-formamide]
9 | 124 nM | CCS(=O)(=O)N(Cc1ccc(F)cc1)c1ccc(N2CCN(S(=O)(=O)N(C)C)CC2)c(C#N)c1 [Compound 43, 4-(2-cyano-4-(N-(4-fluorobenzyl)ethanesulfonamido)phenyl)-N,N-dimethylpiperazin-1-sulfonamide]
10 | 224 nM | CCCS(=O)(=O)N(Cc1ccc(OC)cc1)c1ccc(N2CCN(S(=O)(=O)N(C)C)CC2)c(C#N)c1 [Compound 45, 4-(2-cyano-4-(N-(4-methoxybenzyl)propanesulfonamido)phenyl)-N,N-dimethylpiperazin-1-sulfonamide]
11 | 356 nM | CN(C)S(=O)(=O)N1CCN(c2ccc(N(Cc3ccnn3C)S(=O)(=O)c3ccc(F)cc3)cc2C#N)CC1 [Compound 46, 4-(2-cyano-4-((4-fluoro-N-((1-methyl-1H-pyrazol-5-yl)methyl)phenyl)sulfonamido)phenyl)-N,N-dimethylpiperazin-1-sulfonamide]
12 | 124 nM | CN(C)S(=O)(=O)N1CCN(c2ccc(N(Cc3ccc(F)cc3F)S(=O)(=O)CC3CC3)cc2C#N)CC1 [Compound 47, 4-(2-cyano-4-((1-cyclopropyl-N-(2,4-difluorobenzyl)methyl)sulfonamido)phenyl)-N,N-dimethylpiperazin-1-sulfonamide]
13 | 145 nM | CN(C)S(=O)(=O)N1CCN(c2ccc(N(Cc3ccc(F)cc3)S(=O)(=O)c3cccnc3)cc2C#N)CC1 [Compound 48, 4-(2-cyano-4-(-N-(4-fuorophenyl)pyridin-3-sulfonamido)phenyl)-N,N-dimethylpiperazin-1-sulfonamide]
14 | 160 nM | CCCS(=O)(=O)N(Cc1ccc(F)cc1)c1ccc(N2CCN(C(=O)OCC)CC2)c(C(F)(F)F)c1 [Compound 49]
15 | 370 nM | CCCS(=O)(=O)N(Cc1ccc(F)cc1)c1ccc(OC2CCNCC2)c(C#N)c1 [Compound 50, N-(3-cyano-4-(piperidin-4-yloxy)phenyl)-N-(4-fluorobenzyl) propanesulfonamide]
16 | 412 nM | CCCS(=O)(=O)N(Cc1ccc(F)cc1)c1ccc(SC2CCNCC2)c(C#N)c1 [Compound 51, N-(3-cyano-4-(piperidin-4-ylthio)phenyl)-N-(4-fluorobenzyl) propanesulfonamide]
17 | 139 nM | CCCS(=O)(=O)N(Cc1ccc(F)cc1)c1ccc(NC2CCNCC2)c(C#N)c1 [Compound 52, N-(3-cyano-4-(piperidin-4-ylamino)phenyl)-N-(4-fluorobenzyl) propanesulfonamide]
18 | 291 nM | CCCS(=O)(=O)N(Cc1ccc(F)cc1)c1ccc(OC2CCN(C(C)=O)CC2)c(C#N)c1 [Compound 53, N-(4-((1-acetylpiperidin-4-yl)oxy)-3-cyanophenyl)-N-(4-fluorobenzyl) propanesulfonamide]
19 | 389 nM | CCCS(=O)(=O)N(Cc1ccc(F)cc1)c1ccc(SC2CCN(C(C)=O)CC2)c(C#N)c1 [Compound 54, N-(4-((1-acetylpiperidin-4-yl)thio)-3-cyanophenyl)-N-(4-fluorobenzyl) propanesulfonamide]
20 | 160 nM | CCCS(=O)(=O)N(Cc1ccc(F)cc1)c1ccc(NC2CCN(C(C)=O)CC2)c(C#N)c1 [Compound 55, N-(4-((1-acetylpiperidin-4-yl)amino)-3-cyanophenyl)-N-(4-fluorobenzyl)propanesulfonamide]
21 | 250 nM | CCCS(=O)(=O)N(Cc1ccc(F)cc1)c1ccc(OC2CCN(C=O)CC2)c(C#N)c1 [Compound 56, N-(4-((1-formylpiperidin-4-yl)oxy)-3-cyanophenyl)-N-(4-fluorobenzyl) propanesulfonamide]
22 | 254 nM | CCCS(=O)(=O)N(Cc1ccc(F)cc1)c1ccc(SC2CCN(C=O)CC2)c(C#N)c1 [Compound 57, N-(4-((1-formylpiperidin-4-yl)thio)-3-cyanophenyl)-N-(4-fluorobenzyl) propanesulfonamide]
23 | 279 nM | CCCS(=O)(=O)N(Cc1ccc(F)cc1)c1ccc(NC2CCN(C=O)CC2)c(C#N)c1 [Compound 58, N-(4-((1-formylpiperidin-4-yl)amino)-3-cyanophenyl)-N-(4-fluoro-benzyl)propanesulfonamide]
24 | 441 nM | CC(=O)N1CCC(Oc2ccc(N(Cc3ccccc3)S(=O)(=O)c3ccccc3)cc2C#N)CC1 [Compound 59, N-(4-((1-acetylpiperidin-4-yl)oxy)-3-cyanophenyl)-N-benzylbenzenesulfonamide]
25 | 332 nM | N#Cc1cc(N(Cc2ccccc2)S(=O)(=O)c2ccccc2)ccc1OC1CCN(C=O)CC1 [Compound 60, N-(4-((1-formylpiperidin-4-yl)oxy)-3-cyanophenyl)-N-benzylbenzenesulfonamide]
